Assay results from US10711249B2, “Method for inducing hepatocytes” (KYOTO UNIVERSITY, priority 2014, dated 2020).
Structures can show the parent of a compound that is named as a salt.

Assays:
CYP1A1 = assay: Drug metabolizing enzyme induction reaction: CYP1A1 mRNA by quantitative PCR; type: in vitro ADME, human; details: 100 μM omeprazole, 2 days
Description: A cell population obtained by culturing the cell population obtained in Stage 2 in a Hepatocyte Culture Medium (HCM SingleQuots Kit) supplemented with 20 ng/ml HGF and 20 ng/ml oncostatin M (HGF+OsM) for 8 days; and a cell population obtained by culturing the cell population obtained in Stage 2 in a Hepatocyte Culture Medium (HCM SingleQuots Kit) supplemented with 1 μM methoxamine hydrochloride for 8 days; Panc1 (human pancreatic cancer-derived cell line: Riken Bioresource Center); and HepG2 (human hepatocarcinoma-derived cell line) were used. Each of the cell populations was cultured in a Hepatocyte Culture Medium (HCM SingleQuots Kit) in the presence or absence of 100 μM omeprazole (Sigma) for 2 days, and thereafter, CYP1A1 mRNA expression level was measured by quantitative PCR. […] The amount of CYP1A1 mRNA relative to β actin mRNA was obtained and used as relative expression level of CYP1A1.

[1] = tested on: hepatoblasts induced from human iPS cells; assay: Albumin secreted into the culture medium measured by ELISA; type: cell-based; details: 1 μM in Stage 3, 8 days
Description: The effects of analogous compounds (adrenergic receptor agonist, in particular, an agent having α receptor stimulating action) serving as an alternative compound for a methoxamine hydrochloride were checked. […] Furthermore, the amount of albumin secreted from the obtained cell population into the culture mediumliquid was measured by ELISA.

adrenergic α1 receptor = assay: Mechanism study: albumin secretion with adrenergic receptor blocking agents added with methoxamine in Stage 3; type: cell-based, human; details: 10 μM blocking agent added with methoxamine in Stage 3, 8 days
Description: To study the mechanism of methoxamine to increase the efficacy of hepatocyte induction, adrenergic receptor blocking agents against each adrenergic receptor were added and the secretions of albumin from the resulting cells were measured. […] Methoxamine and each adrenergic receptor blocking agent were added in Stage 3. The adrenergic receptor blocking agents used herein were as follows: 10 μM doxazosin (Sigma) as an α1 blocking agent; 10 μM yohimbine (Sigma) as an α2 blocking agent; and 10 μM metoprolol (Sigma) as a β1 blocking agent; and 10 μM butoxamine (Sigma) as a β2 blocking agent.

[2] = tested on: Mouse ES cells (D3 cell line); assay: Induction of hepatocytes from mouse ES cells: expression of Tat, Cyp3a11, Cyp3a13; details: 1 μM in Stage 3, 8 days; compared with HGF+OsM
CYP3A4 = CYP3A4 expression in induced cells (immunostaining and quantitative PCR)
Description: A cell population obtained by culturing the cells obtained in Stage 2 in a Hepatocyte Culture Medium (HCM SingleQuots Kit) containing 20 ng/ml HGF and 20 ng/ml oncostatin M (HGF+OsM) for 8 days; a cell population obtained by culturing the cells obtained in Stage 2 in a Hepatocyte Culture Medium (HCM SingleQuots Kit) supplemented with 1 μM methoxamine hydrochloride for 8 days; a cell population obtained by culturing the cells obtained in Stage 2 in a Hepatocyte Culture Medium (HCM SingleQuots Kit) supplemented with 1 μM pregnenolone for 8 days; and a cell population obtained by culturing the cells obtained in Stage 2 in a Hepatocyte Culture Medium (HCM SingleQuots Kit) supplemented with DMSO for 8 days were immuno-stained with a CYP3A4 antibody (Proteintech Group) (FIG. 9A). […] CYP3A4mRNA expression levels were measured in these cell populations by quantitative PCR in the same manner as above.

[3] = tested on: hepatoblasts induced from human iPS cells 201B6; assay: Induction of albumin-positive cells in Stage 3 (anti-albumin immunostaining, albumin mRNA by quantitative PCR); type: cell-based
Description: The effects of analogous compounds (adrenergic receptor agonist, in particular, an agent having α receptor stimulating action) serving as an alternative compound for a methoxamine hydrochloride were checked. In Stage 3 as mentioned above, cells were cultured in a Hepatocyte Culture Medium (HCM SingleQuots Kit) supplemented with 1 μM etilefrine, phenylephrine or methoxamine hydrochloride for 8 days. The content ratio of albumin-positive cells and the mRNA expression level of albumin were measured in the same manner as above. […] Furthermore, the amount of albumin secreted from the obtained cell population into the culture mediumliquid was measured by ELISA.

[4] = tested on: cells obtained in Stage 2 (from human iPS cells); assay: PAS staining of induced cells (glycogen accumulation); type: cell-based; details: agent in Stage 3 for 8 days
Description: (§1) 1 mg/ml ICG (indocyanine green) (Sigma) was added to each cell population and cultured for 1 hour. Then, ICG uptake by the cells was observed.
The cells induced in the presence of HGF+OsM, methoxamine hydrochloride or DMSO, and HepG2 were stained with PAS.

[5] = tested on: cells obtained in Stage 2 (from human iPS cells); assay: Oil Red staining of induced cells; type: cell-based; details: agent in Stage 3 for 8 days
Description: as §1
The cells induced in the presence of HGF+OsM, methoxamine hydrochloride or DMSO and HepG2 were stained with Oil Red.

[6] = tested on: hepatocytes induced from human iPS cells; assay: Gene expression profile by RNA sequencing analysis (PCA, liver marker heat map); type: cell-based
Excerpt: The hepatocytes induced from human iPS cells were subjected to RNA sequencing analysis and gene expression profiles were compared.

[7] = tested on: cells obtained in Stage 2 (from human iPS cells); assay: ICG (indocyanine green) uptake by induced cells; type: cell-based; details: agent in Stage 3 for 8 days (methoxamine hydrochloride 1 μM; HGF and oncostatin M 20 ng/ml each); 1 mg/ml ICG, 1 hour
Description: as §1

[8] = tested on: Mouse ES cells (D3 cell line); assay: Mouse ES cell-derived cells immunostained with anti-albumin, anti-Cyp3a4 and anti-C/ebpβ antibodies; type: cell-based; details: Stage 3, 8 days; compared with HGF+OsM
Description: The content ratio of Sox17-positive cells was determined.
The content ratio of AFP-positive cells was determined.
The cells were cultured for 8 days.
The cells cultured in the medium containing methoxamine in Stage 3 for 8 days, the cells cultured in the medium containing HGF+OsM (positive control) in the same manner as above and also the cells cultured in the medium containing DMSO (negative control) were used. These cells were immuno-stained with an anti-albumin antibody (Albumin), anti-Cyp3a4 antibody and anti-C/ebpβ antibody.

COc1ccc2[nH]c([S+]([O-])Cc3ncc(C)c(OC)c3C)nc2c1 (centres unmarked) [omeprazole]
CYP1A1 mRNA expression level (CYP1A1; HepG2 cells): expression of CYP1A1 was induced | CYP1A1 mRNA expression level (CYP1A1; cell population induced with 1 μM methoxamine hydrochloride in Stage 3): expression of CYP1A1 was induced | CYP1A1 mRNA expression level (CYP1A1; cell population induced with HGF+OsM in Stage 3): expression of CYP1A1 was induced

CCNCC(O)c1cccc(O)c1 (centres unmarked) [etilefrine]
amount of albumin secreted into the culture medium (ELISA) [1]: cells having an ability to secrete albumin can be induced

COc1cc2nc(N3CCN(C(=O)C4COc5ccccc5O4)CC3)nc(N)c2cc1OC (centres unmarked) [doxazosin]
volume of albumin secretion (adrenergic α1 receptor): decreased

CC(=O)[C@H]1CC[C@H]2[C@@H]3CC=C4C[C@@H](O)CC[C@]4(C)[C@H]3CC[C@]12C [pregnenolone]
expression of Tat, Cyp3a11 and Cyp3a13 [2]: express the same drug metabolizing enzymes as in the case where HGF+OsM was used | CYP3A4 immunostaining of the induced cells (CYP3A4; agent in Stage 3 for 8 days (1 μM; HGF and oncostatin M 20 ng/ml each)): Cells expressing CYP3A4 were found | CYP3A4 mRNA expression level (quantitative PCR) (CYP3A4; agent in Stage 3 for 8 days, relative to cells induced with DMSO): intensively expressed | induction of albumin-positive cells at two concentrations ([3]; pregnenolone 150 nM and 1 μM in Stage 3): the same results were obtained

COc1ccc(OC)c(C(O)C(C)N)c1 (centres unmarked) [methoxamine hydrochloride]
amount of albumin secreted into the culture medium (ELISA) [1]: cells having an ability to secrete albumin can be induced | PAS staining (glycogen) of the induced cells [4]: stained red-purple | Oil Red staining (lipid drops) of the induced cells [5]: accumulation of lipid drops was observed in some of the cells | concentration at which albumin-expressing cells were obtained (albumin mRNA, quantitative PCR) ([3]; Stage 3, 8 days, tested 0 M, 1 fM, 1 pM, 1 nM, 1 μM, 50 μM, 100 μM): ≥ 1 fM | gene expression profile compared with hepatocytes induced by HGF and OsM [6]: substantially the same gene expression profile | ICG uptake by the induced cells [7]: ICG uptake was observed | immunostaining for Albumin, Cyp3a4 and C/ebpβ [8]: very similar expression was observed

CNC[C@H](O)c1cccc(O)c1 [phenylephrine]
amount of albumin secreted into the culture medium (ELISA) [1]: cells having an ability to secrete albumin can be induced
